Consider ten compounds from paper PMC11151938 (Nature, 2024).

By IC50 is commonly meant the concentration at which inhibition is half-maximal.

In test [1] the test system is primary MEFs infected with PR8. In words: IAV-induced necroptosis in primary MEFs. Format: cell-based, mouse. The settings on record: PR8 MOI 2, zVAD 50 μM.
The subject of test [2] is panel of 90 non-mutant human kinases. The settings on record: FDA-approved TKIs, comparison values; cited from earlier work.
The subject of test [3] is Ripk3−/− MEFs. Briefly: RIPK1 kinase-driven cell death in Ripk3−/− MEFs. It is filed as cell-based, mouse. Particulars: TNFα + TAK1 inhibitor.
The target in test [4] is T1, RIPK3 (Homo sapiens, UniProt Q9Y572). The settings on record: cited from earlier work.
T1 sequence (Q9Y572 1-313): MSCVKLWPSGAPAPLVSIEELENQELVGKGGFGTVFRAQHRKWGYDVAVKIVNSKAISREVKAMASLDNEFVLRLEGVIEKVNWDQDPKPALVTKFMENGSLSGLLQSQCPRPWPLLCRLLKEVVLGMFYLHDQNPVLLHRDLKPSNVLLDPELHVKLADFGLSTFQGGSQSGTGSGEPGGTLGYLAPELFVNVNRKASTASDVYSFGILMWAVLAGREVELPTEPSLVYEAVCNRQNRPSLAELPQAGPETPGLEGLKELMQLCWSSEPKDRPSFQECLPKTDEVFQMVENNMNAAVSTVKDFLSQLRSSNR
Test [5] relates to RIPK3. The settings on record: cited from earlier work.
In test [6] the target is T1, RIPK3. Briefly: In vitro RIPK3 kinase assay. Format: biochemical.
Test [7] has as its system necroptosis in cells. Briefly: Necroptosis blockade in cells. Format: cell-based. The settings on record: read-out: blocking necroptosis in cells IC50.
Test [8] relates to influenza. Particulars: mice and humans ref 36, 37; cited from earlier work.

SMILES strings stand for the structures.

On to `CCCS(=O)(=O)Nc1cc(-c2cc(-c3ccc(N4CCNCC4)cc3)cnc2N)cc(F)c1OC` [CSLP37], for which the IAV-triggered necroptosis entry in test [1] is “neither the ABL inhibitor imatinib (Gleevec) nor the selective RIPK2 inhibitor CSLP37[32] blocked IAV-triggered necroptosis”.
Take `Cc1nc(Nc2ncc(C(=O)Nc3c(C)cccc3Cl)s2)cc(N2CCN(CCO)CC2)n1` [Dasatinib]: the “S(35) selectivity score” value in test [2] is reported as 0.28.
Regarding `N#Cc1cc(N2CCC(C(=O)N3N=CC[C@H]3c3cc(F)cc(F)c3)CC2)ncn1` [GSK’547], the “activity against RIPK1 kinase-driven cell death” value in test [3] is “able to block such death”.
With `CNC(=O)c1ccc2c(c1)ncn2-c1ccc(CC(=O)OC(C)(C)C)cc1` [GSK’840], the “activity against recombinant RIPK3 in vitro” value in test [4] is “potent activity”. The activity in cells entry in test [5] is given as “unexpectedly modest activity”.
As to `Cc1cc(-c2cnc(N)c3c(-c4ccc5scnc5c4)csc23)n(C)n1` [GSK’843], the “activity against recombinant RIPK3 in vitro” value in test [4] is “potent activity”. Further, the activity in cells result in test [5] is recorded as “unexpectedly modest activity”.
Regarding `CC(C)S(=O)(=O)c1ccc2nccc(Nc3ccc4scnc4c3)c2c1` [GSK’872], the activity in cells entry in test [5] was “unexpectedly modest activity”.
For `CCN(CC)CCOc1ccc(Nc2ncc3cc(-c4c(Cl)cccc4Cl)c(=O)n(C)c3n2)cc1` [PD166285], the IC50 stood at 1080 nM in test [6] and 2880 nM in test [7].
As for `CNC(=O)c1cc(Oc2ccc(NC(=O)Nc3ccc(Cl)c(C(F)(F)F)c3)cc2)ccn1` [Sorafenib], in test [2], the “S(35) selectivity score” value is on record as 0.22.
On to `Cc1ccc(NC(=O)c2ccc(CN3CCN(C)CC3)cc2)cc1Nc1nccc(-c2cccnc2)n1` [imatinib], for which the IAV-triggered necroptosis entry in test [1] is “neither the ABL inhibitor imatinib (Gleevec) nor the selective RIPK2 inhibitor CSLP37[32] blocked IAV-triggered necroptosis”.
Take `CCOC(=O)C1=C[C@@H](OC(CC)CC)[C@H](NC(C)=O)[C@@H](N)C1` [oseltamivir]: the “time of administration after infection beyond which therapeutic benefit is lost” value in test [8] is recorded as “more than 48 h”.
